Assay results published in PubChem BioAssay AID1508612.

Test: passive permeability, PAMPA, ADME assay (AID 1508612)
Settings: pH 7.4, 30.0 min, 50.0 µM

SMILES | Papp
COc1ccc(-c2cnc(N3CCC(C(N)=O)CC3)s2)cc1OC | 336 ×10⁻⁶ cm/s
Cc1cc(C)c(C(=O)Nc2cccc([S+](=O)([O-])N3CCCC3)c2)[nH]1 | 948 ×10⁻⁶ cm/s
Fc1cc(Nc2nc(-c3ccncc3)nc3ccccc23)ccc1-c1cccc(OC(F)(F)F)c1 | 23.5 ×10⁻⁶ cm/s
Cc1ccc(-c2nc(C)c(C(=O)Nc3ccc4c(c3)C(=O)N3CCC[C@H]3C(=O)N4)s2)cc1 | 976 ×10⁻⁶ cm/s
CC1(C)C(=O)NC2=C1C(=O)C(=O)c1ccccc12 | 12.5 ×10⁻⁶ cm/s
CC(=O)N1CCN(c2ccc(OCc3nn(C)c(C)c3-c3cccc4c(CCCOc5cc(C)c(Cl)c(C)c5)c(C(=O)O)n(Cc5cccnc5)c34)cc2)CC1 | 370 ×10⁻⁶ cm/s
COc1cc([C@@H]2c3cc4c(cc3[C@H](O)[C@H]3COC(=O)[C@H]23)OCO4)cc(OC)c1OC | 224 ×10⁻⁶ cm/s
O=C1NC(=O)C(c2cnc3ccccn23)=C1c1cn2c3c(cccc13)CN(C(=O)N1CCOCC1)CC2 | 82.9 ×10⁻⁶ cm/s
CC1(C)CCC(CN2CCN(c3ccc(C(=O)NS(=O)(=O)c4ccc(NCC5CCOCC5)c([N+](=O)[O-])c4)c(Oc4cnc5[nH]ccc5c4)c3)CC2)=C(c2ccc(Cl)cc2)C1 | 1.5 ×10⁻⁶ cm/s
CCOc1ccc(CCNC(=O)c2cccc(C(=O)c3ccccc3)c2)cc1OCC | > 1000 ×10⁻⁶ cm/s
Cc1cc(-c2nnc3n2CCCCC3)c(C)n1-c1ccc(C(F)(F)F)cc1 | > 1000 ×10⁻⁶ cm/s
CCOc1ccc(CCNC(=O)c2cc3sccc3n2Cc2ccccc2)c(F)c1OCC | < 1 ×10⁻⁶ cm/s
COc1cc2c(cc1Oc1cccc(N(C)C)c1)NC(=O)C21CCN(c2cnccn2)CC1 | > 1000 ×10⁻⁶ cm/s
CN(C)c1ccc(-c2csc(N3CCC(C(N)=O)CC3)n2)cc1 | 3.06 ×10⁻⁶ cm/s
Cc1cc(S(=O)(=O)Nc2cnccc2C(=O)Nc2nc(-c3ccccc3)cs2)c(C)o1 | 768 ×10⁻⁶ cm/s
CCOC(=O)C1CCN(c2nc(-c3ccc(Br)cc3)cs2)CC1 | 120 ×10⁻⁶ cm/s
Cc1cc(-c2ccc(C)c(S(=O)(=O)NCC3CCN(Cc4ccc(F)cc4)CC3)c2)on1 | > 1000 ×10⁻⁶ cm/s
CC(C)CC(C)NC(=O)c1noc(-c2ccc[nH]c2=O)n1 (stereo not given) | 16.6 ×10⁻⁶ cm/s
CC(=O)c1c(C)[nH]c(C(=O)N(C)C)c1C | 57.4 ×10⁻⁶ cm/s
O=C(Nc1ccc(C(=O)Nc2nccs2)cc1)c1ccc2ccccc2c1 | > 1000 ×10⁻⁶ cm/s
CN(C)c1ccccc1-c1csc(N2CCC(C(N)=O)CC2)n1 | 331 ×10⁻⁶ cm/s
COC[C@@H]1CN(C(=O)c2nn(C)c3ccccc23)C[C@H]1c1nc(C)no1 | 165 ×10⁻⁶ cm/s
CCOC(=O)CCNc1cc(N2CCc3ccccc3CC2)nc(-c2ccccn2)n1 | > 1000 ×10⁻⁶ cm/s
CCN1CCC(N(Cc2ccc3c(c2)OCO3)C(=O)Nc2cc(Cl)ccc2C(=O)OC)CC1 | > 1000 ×10⁻⁶ cm/s
CCC(CC)c1cc([C@H]2CN3CC[C@H]2C[C@@H]3CNC(=O)COc2ccccc2)nc(-c2ccncc2)n1 | 790 ×10⁻⁶ cm/s

SMILES | Papp
COc1cc2nccc(Oc3ccc(NC(=O)C4(C(=O)Nc5ccc(F)cc5)CC4)cc3)c2cc1OC | 507 ×10⁻⁶ cm/s
CC(C)Oc1cccc(-c2csc(N3CCC(C(N)=O)CC3)n2)c1 | > 1000 ×10⁻⁶ cm/s
Cc1ccnc(NC(=S)N2CCN(c3ccc(C(F)(F)F)cc3)CC2)c1 | 587 ×10⁻⁶ cm/s
O=c1cc(-c2ccc(O)c(O)c2)oc2cc(O)cc(O)c12 | 120 ×10⁻⁶ cm/s
CC(=O)Nc1ccc(C(=O)Nc2ccc3c(c2)N(C2CCCC2)C(=O)c2ccccc2S3)cc1 | 138 ×10⁻⁶ cm/s
CC[C@@H](CO)NC(=O)[C@@H]1C=C2c3cccc4c3c(cn4C)C[C@H]2N(C)C1 | 396 ×10⁻⁶ cm/s
CCn1c(SCc2ccc(C#N)cc2)nnc1-c1cccc(Cl)c1 | 924 ×10⁻⁶ cm/s
O=C(NC1CCCc2c1cnn2-c1ccc(F)cc1F)c1ccc(C2(C(F)(F)F)N=N2)cc1 (stereo not given) | < 1 ×10⁻⁶ cm/s
O=[S+]([O-])(Nc1ccccc1)c1ccc(NCc2cccc(Cl)c2F)cc1 | 383 ×10⁻⁶ cm/s
Cc1ccc(S(=O)(=O)Nc2cnccc2C(=O)Nc2nc(-c3cccc(F)c3)cs2)cc1 | 153 ×10⁻⁶ cm/s
Cn1nnnc1Sc1ncnc2scc(-c3cc4ccccc4o3)c12 | 936 ×10⁻⁶ cm/s
CCN(c1cc(C#CCN2CCOCC2)cc(C(=O)NCc2c(C)cc(C)[nH]c2=O)c1C)C1CCC(N(C)CCOC)CC1 (stereo not given) | 6.74 ×10⁻⁶ cm/s
NC(=O)C1CCN(c2nc(-c3ccc(C(F)(F)F)cc3)cs2)CC1 | 292 ×10⁻⁶ cm/s
COc1ccc(-n2nc(C3CCCN(C(=O)C4CC4)C3)[nH]c2=O)cc1 (stereo not given) | 113 ×10⁻⁶ cm/s
Cc1cc(C)nc(NC(=S)N2CCN(c3ccc(Cl)cc3F)CC2)c1 | > 1000 ×10⁻⁶ cm/s
CCOc1ccc(CCNC(=O)c2ccnn2Cc2ccccn2)cc1OCC | 177 ×10⁻⁶ cm/s
CNS(=O)(=O)c1cc(-c2nn3c(C)nnc3c3ccccc23)ccc1C | 146 ×10⁻⁶ cm/s
COC(=O)c1ccc(NC(=O)c2nc3ccccc3n(C)c2=O)cc1 | 350 ×10⁻⁶ cm/s
CC(=O)N1CCC(NC(=O)c2nc(-c3ccccc3)cc3[nH]ccc23)CC1 | 288 ×10⁻⁶ cm/s
Cc1ccc2nc(NC3=NC(c4[nH]ncc4Cl)C4=C(CCCC4=O)N3)oc2c1 (stereo not given) | 997 ×10⁻⁶ cm/s
Cc1ccc(S(=O)(=O)Nc2ccccc2C(=O)Nc2ncc(-c3ccccc3)o2)cc1 | 303 ×10⁻⁶ cm/s
Nc1c(-c2ccncc2)cc[nH]c1=O | 3.1 ×10⁻⁶ cm/s
Cc1ccc(-n2nc3c(=O)n(CCCC(=O)NCc4ccc(F)cc4)nc(C)c3c2C)cc1 | 842 ×10⁻⁶ cm/s
Cc1ccc(S(=O)(=O)Nc2cnccc2C(=O)Nc2ccc(-n3cncn3)cc2)cc1 | 8.29 ×10⁻⁶ cm/s
COCCNC(=O)c1ccc(Cn2c(=S)[nH]c3cc4c(cc3c2=O)OCO4)cc1 | 108 ×10⁻⁶ cm/s

SMILES | Papp
C[C@]12CC[C@@H]3[C@H](CCC4=CC(=O)CC[C@]43C)[C@]1(O)CC[C@@]2(O)C(=O)CO | 30.8 ×10⁻⁶ cm/s
Nc1scc2c(C(=O)O)nn(-c3ccccc3)c(=O)c12 | < 1 ×10⁻⁶ cm/s
COc1ccnc(NC(=S)N2CCN(c3cccc(C(F)(F)F)n3)CC2)c1 | > 1000 ×10⁻⁶ cm/s
CC1(C)CC2CC(C)(CN2S(=O)(=O)c2ccc(C(=O)Nc3ccc(Cl)cc3)cc2)C1 (stereo not given) | > 1000 ×10⁻⁶ cm/s
COc1cccc(CNc2ccc(S(=O)(=O)Nc3nc(C)cs3)cc2)c1O | 128 ×10⁻⁶ cm/s
CCCCOc1ccc(CC(=O)NO)cc1 | 133 ×10⁻⁶ cm/s
CCNC(=O)Nc1ncc(-c2cc(-c3c(C)cc(OC)cc3C)nc(-c3cnccn3)n2)s1 | 762 ×10⁻⁶ cm/s
COCCCNC(=O)c1cc2cc(S(=O)(=O)N(C)C)ccc2n1C | 77.2 ×10⁻⁶ cm/s
O=C(c1nc(-c2cccnc2)c2ccccn12)N1CCOCC1 | 206 ×10⁻⁶ cm/s
COC(=O)c1ccc(Oc2nc3c(c(=O)n(C)c(=O)n3C)n2CCC(C)C)cc1 | > 1000 ×10⁻⁶ cm/s
CSc1ccc(C(=O)c2[nH]c(=O)[nH]c2C)cc1 | 28.7 ×10⁻⁶ cm/s
Cc1cc(-c2nnc3n2CCCCC3)c(C)n1-c1ccc(C(C)(C)C)cc1 | > 1000 ×10⁻⁶ cm/s
O=C(NC1CCCc2c1[nH]c1ccc(Cl)cc21)c1ccncc1 (stereo not given) | 7.6 ×10⁻⁶ cm/s
CCOC(=O)c1nn(-c2ccccc2)c(=O)c2c(N)scc12 | > 1000 ×10⁻⁶ cm/s
Cc1ccc(S(=O)(=O)NCc2ccccc2)cc1 | 537 ×10⁻⁶ cm/s
CC(C)c1ccccc1-c1ncc(F)c(NCc2ccc(-c3cccnc3)s2)n1 | > 1000 ×10⁻⁶ cm/s
Fc1cc(-c2nc(Nc3ccc(F)c(F)c3)c3ccccc3n2)ccn1 | 116 ×10⁻⁶ cm/s
NC(=O)C1CCN(c2nc(-c3cccc(F)c3)cs2)CC1 | 685 ×10⁻⁶ cm/s
Nc1nc2c(s1)C(c1c(Cl)cccc1Cl)CC(=O)N2 (stereo not given) | 5.54 ×10⁻⁶ cm/s
COc1ccc(OC)c(N2C(=O)C(Cl)=C(N3CCCCC3)C2=O)c1 | > 1000 ×10⁻⁶ cm/s
Cc1ccc(CNc2ccccc2C(=O)Nc2nc(-c3ccccc3)cs2)cc1 | 26.4 ×10⁻⁶ cm/s
CN1C(=O)CN=C(c2ccc[nH]2)c2cc(Cl)ccc21 | 714 ×10⁻⁶ cm/s
Cc1cccc(-c2cc(NC(=O)c3ccccc3C)n(-c3ccccc3)n2)c1 | 657 ×10⁻⁶ cm/s
N=c1c2ccccc2nnn1-c1ccc(C(F)(F)F)cc1 | 148 ×10⁻⁶ cm/s
Cc1nn(Cc2ccc(Cl)cc2)c(C)c1NC(=O)c1cc(-c2ccc3c(c2)OCO3)on1 | 836 ×10⁻⁶ cm/s
